Read-outs that look alike come from different tables or passages of the source.
Tests used:
ovine COX-1 = target: T1, ovine COX-1 (Ovis aries, UniProt P05979); assay: TLC assay, inhibition of purified ovine COX-1
T1 sequence (P05979 25-600): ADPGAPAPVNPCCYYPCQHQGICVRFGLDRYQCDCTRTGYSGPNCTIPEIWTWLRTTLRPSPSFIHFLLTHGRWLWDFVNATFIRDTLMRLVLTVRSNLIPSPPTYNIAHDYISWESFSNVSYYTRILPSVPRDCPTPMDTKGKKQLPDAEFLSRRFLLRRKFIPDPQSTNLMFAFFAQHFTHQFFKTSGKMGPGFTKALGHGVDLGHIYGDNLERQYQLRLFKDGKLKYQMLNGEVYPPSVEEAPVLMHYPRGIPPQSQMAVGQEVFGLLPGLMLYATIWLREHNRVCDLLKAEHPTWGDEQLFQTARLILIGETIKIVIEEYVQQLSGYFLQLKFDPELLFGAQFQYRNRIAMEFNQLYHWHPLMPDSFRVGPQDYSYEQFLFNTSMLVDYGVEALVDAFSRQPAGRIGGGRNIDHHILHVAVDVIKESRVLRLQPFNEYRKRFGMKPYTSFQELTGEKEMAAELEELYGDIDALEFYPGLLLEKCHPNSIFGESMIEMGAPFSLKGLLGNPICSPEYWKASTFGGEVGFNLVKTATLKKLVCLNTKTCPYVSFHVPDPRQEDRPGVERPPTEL
Excerpt: (§1) Ovine COX-1 was used because it is very easy to isolate and to purify the enzyme from sheep seminal vesicles, whereas human COX-1 is normally obtained by over expression in an insect cell system and is very difficult to handle and especially to purify. COX-1 from sheep is >90% similar to COX-1 from humans. […] COX-1 was purified from ram seminal vesicles obtained from Oxford Biomedical Research, Inc. (Oxford, Mich.). […] The enzymes obtained after purification were apo (i.e., they lacked the hemprosthetic group).
(§2) Reactions were terminated by solvent extraction in Et2O/CH3OH/1 M citrate, pH 4.0 (30:4:1). The phases were separated by centrifugation at 2000 g-force for 2 minutes and the organic phase was spotted on a TLC plate (obtained from J. T. Baker, Phillipsburg, N.J.). The plate was developed in EtOAc/CH2Cl2/glacial AcOH (75:25:1) at 4° C. Radiolabeled prostanoid products were quantitatively determined with a radioactivity scanner (obtained from Bioscan, Inc., Washington, D.C.).

COX-2 [1] = target: T2, COX-2 (Homo sapiens, UniProt P35354); assay: TLC assay, inhibition of purified human COX-2; format: biochemical; conditions: for IC50: human COX-2 (66 nM)
T2 sequence (P35354 18-604): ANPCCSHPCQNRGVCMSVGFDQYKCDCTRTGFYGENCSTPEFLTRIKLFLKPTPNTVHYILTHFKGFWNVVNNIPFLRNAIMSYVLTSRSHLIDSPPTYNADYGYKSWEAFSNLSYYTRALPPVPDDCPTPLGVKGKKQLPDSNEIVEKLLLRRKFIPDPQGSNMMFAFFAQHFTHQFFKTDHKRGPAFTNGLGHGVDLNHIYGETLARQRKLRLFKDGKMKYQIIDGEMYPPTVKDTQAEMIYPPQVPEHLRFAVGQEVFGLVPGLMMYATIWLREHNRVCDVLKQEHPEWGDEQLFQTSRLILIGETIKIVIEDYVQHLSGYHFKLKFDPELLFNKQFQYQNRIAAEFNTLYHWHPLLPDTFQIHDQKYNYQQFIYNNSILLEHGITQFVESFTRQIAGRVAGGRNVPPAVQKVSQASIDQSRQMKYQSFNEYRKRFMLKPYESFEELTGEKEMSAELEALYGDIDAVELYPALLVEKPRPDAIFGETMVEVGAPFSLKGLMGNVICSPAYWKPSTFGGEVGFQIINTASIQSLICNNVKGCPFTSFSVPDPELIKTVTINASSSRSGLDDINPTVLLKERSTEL
Excerpt: as §1, §2

[2] = tested on: carrageenan-induced rat foot pad edema; assay: Rat foot pad edema model (carrageenan); format: in vivo; conditions: for 3 hour edema: gavage 1 hour post carrageenan, 6 rats
Description: Rats were injected with carrageenan, which triggers a rapid edema (swelling) within 3 hours that can be quantitatively measured by volume displacement.
In these experiments, the carrageenan that was injected was in 0.1 mL of aqueous saline so that 0.1 mL volume increase was due to the injection alone. […] More specifically, male Sprague-Dawley rats (150 g) received a subplantar injection of carrageenan (0.1 mL of a 1% suspension of carrageenan in sterile aqueous saline) into the right hind footpad while mildly anesthetized with methoxyflurane. […] The ipsilateral footpad volume (mL) was measured with a water displacement plethysmometer at time=3 hours post-injection and compared to the time=0 pre-injection paw volume for edema calculations.

COX-1 = COX-1 (Homo sapiens, UniProt P23219); conditions: background; cited from earlier work
COX-2 [3] = target: T2, COX-2; conditions: background; cited from earlier work
[4] = read-out: IC50 (μM) COX-1, Table 2 amide derivatives, ovine COX-1 (44 nM), 20 min, then 1-14C-AA (50 μM) 37° C. 30 sec
[5] = Table 2 amide derivatives, 20 min, then 1-14C-AA (50 μM) 37° C. 30 sec
[6] = read-out: IC50 (μM) COX-1, Table 1 ester derivatives, ovine COX-1 (44 nM), 20 min at rt, then 14C-AA (50 μM) 37° C. 30 sec

Sequence of COX-1 (P23219 24-599): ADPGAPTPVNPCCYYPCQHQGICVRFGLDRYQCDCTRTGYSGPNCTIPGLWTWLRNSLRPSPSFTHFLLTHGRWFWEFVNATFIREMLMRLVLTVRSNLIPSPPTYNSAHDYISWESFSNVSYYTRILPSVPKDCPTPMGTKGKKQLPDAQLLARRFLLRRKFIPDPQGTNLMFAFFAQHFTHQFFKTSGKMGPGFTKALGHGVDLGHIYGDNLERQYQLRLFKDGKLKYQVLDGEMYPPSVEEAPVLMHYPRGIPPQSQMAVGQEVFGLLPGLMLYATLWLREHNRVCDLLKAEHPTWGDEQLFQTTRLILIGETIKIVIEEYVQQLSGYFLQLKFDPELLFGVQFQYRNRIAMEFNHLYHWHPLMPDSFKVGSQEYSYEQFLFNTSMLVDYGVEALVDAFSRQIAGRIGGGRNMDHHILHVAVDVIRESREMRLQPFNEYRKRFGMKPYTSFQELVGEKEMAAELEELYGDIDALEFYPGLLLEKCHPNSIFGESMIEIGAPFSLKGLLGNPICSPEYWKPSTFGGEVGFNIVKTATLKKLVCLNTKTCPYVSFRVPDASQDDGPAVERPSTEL

Q: For `COc1ccc2c(c1)c(CC(=O)Nc1cc(OC)c(OC)c(OC)c1)c(C)n2C(=O)c1ccc(Cl)cc1` [Compound 46, Indomethacin-N-(3,4,5-trimethoxyphenyl) amide], which IC50 (ovine COX-1; [4]) is on record?
A: > 66 µM

Q: And the “Selectivity, ratio of IC50 (COX-1):IC50 (COX-2)” value (COX-2 [1]; Table 2 amide derivatives)?
A: >66

Q: What about the IC50 (COX-2 [1]; [5]) of the same compound?
A: > 1 µM

Q: Which IC50 (ovine COX-1) does the source give for `Cc1nc(-c2ccccc2)c(-c2ccc(S(N)(=O)=O)cc2)o1` [2-methyl-4-phenyl-5-sulfonamidophenyl oxazolo, reference compound] here?
A: > 66 µM

Q: And the IC50 (ovine COX-1; [6])?
A: > 66 µM

Q: And the IC50 (COX-2 [1]; Table 1 ester derivatives, 20 min at rt, then 14C-AA (50 μM) 37° C. 30 sec)?
A: 0.06 µM

Q: Which results are given for `COC(=O)Cc1c(C)n(C(=O)c2ccc(Cl)cc2)c2ccc(OC)cc12` [Compound 2, Indomethacin methyl ester]?
A: IC50 (ovine COX-1): ~33 µM; IC50 (ovine COX-1; [6]): 33 µM

Q: Which IC50 (ovine COX-1) does the source give for `CCCCCCCOC(=O)Cc1c(C)n(C(=O)c2ccc(Cl)cc2)c2ccc(OC)cc12` [Compound 11, Indomethacin heptyl ester] here?
A: > 66 µM

Q: With `COc1ccc2c(c1)c(CC(=O)O)c(C)n2C(=O)c1ccc(Cl)cc1` [Indomethacin, reference compound] as the compound, how does the “reduction in inflammation, in words” value ([2]; rat, 2 mg/kg orally) read?
A: comparable reduction in inflammation

Q: With `COc1ccc2c(c1)c(CC(=O)OC(C)C)c(C)n2C(=O)c1ccc(Cl)cc1` [Compound 5, Indomethacin isopropyl ester] as the compound, how does the IC50 (ovine COX-1) read?
A: 37 µM

Q: With `CCCCC#CCOC(=O)Cc1c(C)n(C(=O)c2ccc(Cl)cc2)c2ccc(OC)cc12` [Compound 14, Indomethacin hept-2-ynyl ester] as the compound, how does the IC50 (ovine COX-1) read?
A: > 66 µM

Q: With `CCCCCCCCOC(=O)Cc1c(C)n(C(=O)c2ccc(Cl)cc2)c2ccc(OC)cc12` [Compound 16, Indomethacin octyl ester] as the compound, how does the IC50 (ovine COX-1) read?
A: > 66 µM

Q: For `CC1=C(CC(=O)O)c2cc(F)ccc2/C1=C\c1ccc(S(C)(=O)=O)cc1` [sulindac sulfone], which “COX-1 inhibition, in words” value (COX-1) is on record?
A: does not inhibit

Q: And the “COX-2 inhibition, in words” value (COX-2 [3])?
A: does not inhibit

Q: With `COc1ccc2c(c1)c(CC(=O)Oc1ccc3ccccc3c1)c(C)n2C(=O)c1ccc(Cl)cc1` [Compound 25, Indomethacin β-naphthyl ester] as the compound, how does the IC50 (ovine COX-1) read?
A: > 66 µM

Q: Which IC50 (ovine COX-1; [4]) does the source give for `COc1ccc2c(c1)c(CC(=O)Nc1ccc(Cl)nc1)c(C)n2C(=O)c1ccc(Cl)cc1` [Compound 48, Indomethacin-N-5-((2-chloro)pyridyl) amide] here?
A: > 66 µM

Q: What about the “Selectivity, ratio of IC50 (COX-1):IC50 (COX-2)” value (COX-2 [1]; Table 2 amide derivatives) of the same compound?
A: >1404

Q: What about the IC50 (COX-2 [1]; [5]) of the same compound?
A: 0.047 µM

Q: For `COc1ccc2c(c1)c(CC(=O)Nc1ccc(NC(C)=O)cc1)c(C)n2C(=O)c1ccc(Cl)cc1` [Compound 41, Indomethacin-N-(4-acetamidophenyl) amide], which “3 hour edema” value ([2]; Concentration 0.2 mg/mL) is on record?
A: 0.55 mL

Q: What about the “3 hour edema” value ([2]; Concentration 0.5 mg/mL) of the same compound?
A: 0.47 mL

Q: And the “3 hour edema” value ([2]; Concentration 1.0 mg/mL)?
A: 0.39 mL

Q: What about the “3 hour edema” value ([2]; Concentration 2.0 mg/mL) of the same compound?
A: 0.38 mL

Q: What about the reduction in inflammation ([2]; rat, 2 mg/kg orally 1 hour after carrageenan, corrected for 0.1 mL injection volume) of the same compound?
A: 80-85%

Q: For `COc1ccc2c(c1)c(CC(=O)Nc1nc(C)cs1)c(C)n2C(=O)c1ccc(Cl)cc1` [Compound 57, Indomethacin-N-2-(4-methylthiazolyl) amide], which IC50 (ovine COX-1; [4]) is on record?
A: > 66 µM

Q: With `COC(=O)[C@H](C)NC(=O)Cc1c(C)n(C(=O)c2ccc(Cl)cc2)c2ccc(OC)cc12` [Compound 52, Indomethacin-N-2-(2-L-methoxycarbonylethyl) amide] as the compound, how does the IC50 (COX-2 [1]; [5]) read?
A: 0.4 µM

Q: Which IC50 (ovine COX-1) does the source give for `CCC#CCC(C)OC(=O)Cc1c(C)n(C(=O)c2ccc(Cl)cc2)c2ccc(OC)cc12` (stereo not drawn) [Compound 15, Indomethacin 2-(hept-4-ynyl) ester] here?
A: > 66 µM

Source: US6762182B1, “Converting cox inhibition compounds that are not COX-2 selective inhibitors to derivatives that are COX-2 selective inhibitors” (Vanderbilt University, priority 1999, dated 2004)
